Laboratory results: patent US20250169495A1, “COMPOSITIONS AND METHODS FOR CONTROLLING DROSOPHILA FLIES” (Rutgers, The State University of New Jersey, priority 2023, published 2025)

Experiments:
[1] = system: Drosophila suzukii adults; assay: Multiple choice bioassay #2: known and putative repellents; type: in vivo; conditions: 50 μL neat; six traps per arena; 24 h; n=6
Method: Within each arena, six gated traps were positioned randomly in a circle (40 cm diameter) at equal distance with each trap 20 cm apart along the circumference. Each gated trap contained ˜5 g of store-bought organic blueberry fruit (n=5), as described elsewhere herein. One of the six traps served as a control (with blueberry fruit only) and the remaining five traps had one of the repellents added to the blueberry fruit. Each volatile (50 μL, neat) was released from a 1 mL polyethylene vial with a piece of cotton placed inside each trap (control traps had vials with cotton but without the volatile). A vial with a cotton ball soaked with deionized water was placed in the middle of the arena. Roughly 150 D. suzukii adults (1:1 male: female ratio) were released inside each arena and the number and sex of flies inside treatment and control traps was recorded after 24 h. The experiment started at 1:00 p.m., was replicated 6 times, and was done in a laboratory under 22±2° C., 55±5% RH, 16:8 (L:D) h. Data from multiple choice assays on the percent of male and female D. suzukii adults responding to each volatile were compared using ANOVA (Minitab version 17; Minitab Inc., State College, PA, USA). The ANOVA model included treatment, sex, and their interaction as fixed factors and block (replicate) as a random factor. A multi-comparison Tukey test (Minitab) was used to determine differences among treatments. Percent data were arcsine square-root transformed prior to ANOVA. Pairwise choice assays were analyzed using G-tests with William's correction. Non-responders were excluded from the statistical analyses.

Drosophila suzukii = assay: Semi-field cage oviposition deterrence, potted blueberry bushes; type: in vivo; conditions: N=10; for fewer eggs laid in treated berries than in control berries: sachet 2.5 mL, 24 h
Method: Semi-field cage experiments were conducted from June until July to evaluate the oviposition deterrent effects of ethyl butanoate, ethyl (E)-but-2-enoate, and 2-pentylfuran against D. suzukii. These experiments are considered semi-field because they took place in an isolated open field surrounded by woods with potted plants inside outdoor cages. The cages were constructed using polyvinyl chloride (PVC) pipes (3.8 cm diameter) to construct 1.8 m×1.8 m×1.8 m frames. Screen tents (Lumite® screen portable field cages; BioQuip, CA, USA) were placed over the PVC frames, and large nails were used to secure the tents to the ground (FIG. 6A). Cages were spaced 10 m apart. To obtain blueberries for the experiment, prior to the start of the experiment, field-grown highbush blueberry (Vaccinium corymbosum L. var. ‘Bluecrop’) clusters were bagged early in the season with cloth bags when they were still green to prevent infestation from resident D. suzukii populations for use in the experiment. In addition, 80 3-to-4-year-old potted blueberry bushes were stripped of their berries and used for the experiment. On the day of testing, two bushes were placed in each cage (FIG. 6B). Each bush in the tent was surrounded by a metal tomato cage. The bagged blueberry fruit clusters in the field were clipped and brought inside the cages. Clusters of 10 berries were created and placed in water picks. Five berry clusters were distributed randomly and evenly on each tomato cage at different heights using green twist ties (FIG. 6B). The sachets used for the treatments were prepared according to the methods described by Gale et al. (2024). They were constructed from 8 cm strips of polyethylene tubing (5.1 cm width, 2 MIL thickness; ULINE, Pleasant Prairie, WI, USA) and polyester felt (Grainger, Lake Forest, IL, USA). One end of the polyethylene tubing was sealed with an impulse sealer. A 5 cm strip of felt was placed inside the sachet's open end, and a 2.5 mL aliquot of each treatment was pipetted onto the felt. The open end was then sealed shut with the impulse sealer, entirely sealing the saturated felt. A hole was punched at the top of each sachet, away from the treatment area to avoid damaging the sealed section, and green twist ties were used to hang the sachets in the center of a bush (FIG. 6B). Before loading the sachets, the weights of the empty sachets were taken. The sachets were weighed again directly after loading with the compounds and then a final time after the 24-hour test period to measure the emission rates of each volatile. In each cage, one of the bushes contained a sachet with the test volatile, while the other contained a blank sachet (control). Sachets were hung in the bushes 30 minutes prior to the start of experiments. Choice tests included: 1) control versus control; 2) control versus ethyl butanoate; […]) control versus ethyl (E)-but-2-enoate; and 4) control versus 2-pentylfuran. Fifty flies (1:1 male: female) were released in each cage at 18:00 hrs. After 24 hours, the berry clusters were collected and placed in 118 mL plastic cups. Berries were inspected under a dissection microscope for the number of eggs laid and were then incubated in 236.6 mL (8-oz) deli containers lined with two cotton pads on a laboratory bench at 22±2° C. and 55±5% relative humidity for two weeks to monitor for adult emergence. The study was replicated 10 times for each choice combination (N=4 choice combinations×2 bushes each×10 replicates=total of 80 bushes; N=50 flies×4 choice combinations×10 replicates=total of 2,000 flies). Semi-field cage data were analyzed using paired t-tests to determine differences between the number of eggs laid and adults that emerged from treated berries compared to control berries, and survival data were analyzed using two-way analysis of variance (ANOVA) (R statistical software version 4.1.1; R Development Core Team, Vienna, Austria). […]

Structure (SMILES)	strength of repellency among the five repellents (rank) [1]	deterrence index (DI) based on number of eggs laid (Drosophila suzukii)	difference in adult emergence between untreated and treated berries (Drosophila suzukii; berries incubated two weeks)	fewer eggs laid in treated berries than in control berries (Drosophila suzukii)	fewer flies (adult progeny) emerging from treated berries than from control berries (Drosophila suzukii; berries incubated two weeks)
CCCCCc1ccco1 [2-pentylfuran, reference compound]	the least repellent	performed similarly and were significantly different from the control	nonsignificant	67%	
C/C=C/C(=O)OCC [ethyl (E)-but-2-enoate]	the most repellent	performed similarly and were significantly different from the control		75%	78%
CCCC(=O)OCC [ethyl butanoate]		performed similarly and were significantly different from the control		54%	59%
